# Reference: patent US7612036B2, “Peptoid compounds” (University of Wollongong, priority 2001, dated 2009)
# System: Staphylococcus aureus (ATCC 6538P)
# Assay: Antibacterial screen (MIC, 96 well microtitre broth dilution) against S. aureus
# Format: cell-based
# Conditions: 37° C. for 18 hours, highest dilution of compound that prevented bacterial growth
# Experimental: General Methods for Antibacterial Screens
# • SA: Staphylococcus aureus • PA: Pseudomonas aeruginosa • KP: Klebsiella pneumoniae • SP: Streptococcus pneumoniae Bacterial Strains Used: • Staphylococcus aureus (ATCC 6538P) • Pseudonmonas aeruginosa (ATCC 27853) • Klebsiella pneumoniae (IP103623) • Streptococcus pneumoniae (IP53146) Culture Media
# Mueller-Hinton Broth Medium (MHB): MHB (Oxoid CM405) was prepared with final concentrations of 1 μg/mL MgCl2 and 2 μg/mL CaCl2. Culture medium was pre-warmed for approximately 2-3 hours at 37° C. before use.
# From thawed cryovials, P. aeruginosa, K. pneumoniae and S. aureus were streaked onto Mueller Hinton Agar (MHA), and S. pneumoniae was streaked onto Blood Agar (BA), and plates were incubated overnight at 37° C. For each bacterial strain, 10 cryovials were prepared by looping several colonies into 0.5 mL of 20% glycerol solution. The cryovials were immediately stored at −140° C.
# A cryovial was removed from −140° C. storage and thawed at room temperature. An MHA plate was streaked with a loopful of bacterial suspension and incubated overnight at 37° C. to create a parent plate (P1). A daughter plate (D1) was streaked from the parent plate and incubated overnight at 37° C. The parent plate was stored at 4° C. A loop of colony from the daughter plate was used to inoculate a 125 mL flask containing 20 mL of Mueller Hinton Broth (MHB) containing 25 μg/mL CaCl2.2H2O and 12.5 μ/mL MgCl2.6H2O. The flask was shaken at 260 rpm for 18 hours at 37° C. on an orbital incubator shaker. The parent plate (P1) was reused within 9 days to generate another daughter plate (D2), which, in turn, was used to inoculate a broth culture. Parent plates were used twice (to generate D1 and D2 plates) before a new one was prepared from the previously thawed cryovial. The second parent plate (P2) was used to generate two additional daughter plates using the procedure outlined above before being discarded. Cryovials were used twice to prepare parent plates (P1 and P2) before being discarded.
# Prepare a 1/10 dilution of Seed Cultures by adding 250 μl of the cultures to 2,250 μl of MHB in a disposable cuvette. Read OD650 and multiply OD650 by a factor of 10 to calculate the optical density of the undiluted culture. Calculate the required dilution factor by dividing the observed OD650 by the standard OD650 for each strain (previously determined in assay optimisation studies).
# Prepare sufficient volumes of the final inoculum cultures in pre-warmed MHB (37° C.) by diluting the standardised cultures to the required final concentration. The final dilutions used for each of the bacterial strains were as follows: • K. pneumoniae—10^6 dilution; • P. aeruginosa—10^6 dilution; • S. aureus—10^8 dilution; • S. pneumoniae—10^4 dilution. Assay Procedure (for 96 well Microtiter Plates)
# Add 50 microliters of liquid medium to each well of a 96 well microtitre plate. Dissolve test samples in liquid medium. Add 50 microliters of test sample in triplicate to the top row of the microtitre plate, and include a vancomycin control set. Also include a compound negative control well set. Allow inoculated culture medium to incubate at 37° C. for 30 minutes, shaking at 130 rpm. Using a multichannel pipette, mix the contents of the first row and transfer 50 microliters of mixed broth solutions to the next row, change tips and repeat until the last row contains diluted compound or control and discard 50 microliters from the last row. Each well should now contain 50 microliters of diluted compound or negative control medium. Using a multistepper pipette add 50 microliters of inoculum to each well of the plate, save for one row containing the compound negative control, to this row add 50 microliters of liquid broth. Incubate plates at 37° C. for 18 hours, shaking at 100 rpm in an environment of approximately 90% relative humidity. Results were recorded as the highest dilution of compound that prevented bacterial growth (MIC).
row,Molecule,MIC
1,"6-Acetamido-8,11-diaza-9-(3-guanidinopropyl)-12-methoxycarbonyl-7,10-dioxo-[12](3,6)-1H-carbazolophane HCl (9R,12S) [Example 38]",32 µg/mL
2,"6-Acetamido-8,11-diaza-9-(3-guanidinopropyl)-12-methoxycarbonyl-7,10-dioxo-[12](3,6)-1H-carbazolophane HCl (9S,12S) [Example 36]",32 µg/mL
3,"6-Acetamido-8,11-diaza-14-ene-9-(3-guanidinopropyl)-12-methoxycarbonyl-7,10-dioxo-[12](3,6)-1H-carbazolophane HCl (9R,12S) [Example 37]",64 µg/mL
4,"6-Acetamido-9-(4-aminobutyl)-8,11-diaza-1-tert-butoxycarbonyl-14-ene-12-methoxycarbonyl-7,10-dioxo-[12](3,6)-1H-carbazolophane HCl (9S,12S) [Example 39A]",32 µg/mL
5,"6-Acetamido-9-(4-aminobutyl)-8,11-diaza-12-methoxycarbonyl-7,10-dioxo-[12](3,6)-1H-carbazolophane HCl (9R,12S) [Example 42]",64 µg/mL
6,"6-Acetamido-9-(4-aminobutyl)-8,11-diaza-12-methoxycarbonyl-7,10-dioxo-[12](3,6)-1H-carbazolophane HCl (9S,12S) [Example 40]",64 µg/mL
7,"COC(=O)C1CC=CCc2cc3ccccc3c(c2OC)-c2c(OC)c(cc3ccccc23)CC(NC(C)=O)C(=O)NC(CCCCN)C(=O)N1.Cl (single isomer, unassigned) [15 (one isomer)]",8 µg/mL
8,"CCCc1ccc2[nH]c3ccc(CC(NC(C)=O)C(=O)N[C@H](CCCCN)C(=O)N[C@@H](CCC)C(=O)OC)cc3c2c1.Cl (single isomer, unassigned) [44 (another isomer)]",64 µg/mL
9,"CCCc1ccc2[nH]c3ccc(CC(NC(C)=O)C(=O)N[C@H](CCCCN)C(=O)N[C@@H](CCC)C(=O)OC)cc3c2c1.Cl (single isomer, unassigned) [44 (one isomer)]",32 µg/mL
10,"C=CCc1cc2ccccc2c(-c2c(OC)c(CC(NC(C)=O)C(=O)N[C@H](CCCCNC(=O)OC(C)(C)C)C(=O)N[C@@H](CC=C)C(=O)OCc3ccccc3)cc3ccccc23)c1OC (stereo partly drawn) [Example 13A, benzyl (aR/S,2S,5R)-8-acetamido-2-allyl-9-{3-[3′-allyl-2,2′-dimethoxy-1,1′-binaphthyl]}-3,6-diaza-5-(4-{[(tert-butoxy)carbonyl]amino}butyl)-4,7-dioxononanoate]",4 µg/mL
11,"COC(=O)C1CCCCc2cc3ccccc3c(c2OC)-c2c(OC)c(cc3ccccc23)CC(NC(C)=O)C(=O)NC(CCCCN)C(=O)N1.Cl [Example 15A, (aR/S,7R,10S)-4-acetamido-7-(4-aminobutyl)-6,9-diaza-10-methoxycarbonyl-1(1,3),2(1,3)-di(2-methoxynaphthalena)-5,8-dioxocyclotetradecaphane hydrochloride]",16 µg/mL
12,"C=CCc1cc2ccccc2c(-c2c(OC)c(CC(NC(C)=O)C(=O)N[C@H](CCCNC(=N)N)C(=O)N[C@@H](CC=C)C(=O)OC)cc3ccccc23)c1OC.Cl (stereo partly drawn) [Example 19A, methyl (aR/S,2S,5R)-8-acetamido-2-allyl-9-[3-(3′-allyl-2,2′-dimethoxy-1,1′-binaphthyl)]-3,6-diaza-5-(3-guanidinopropyl)-4,7-dioxononanoate hydrochloride]",4 µg/mL
13,"COC(=O)[C@@H]1CC=CCOc2ccc3ccccc3c2-c2c(ccc3ccccc23)OCC(=O)N[C@H](CCCCNC(=N)N)C(=O)N1.Cl [Example 103, (aR,S,7R,10S)-6,9-diaza-3,15-dioxa-5,8-dioxo-7-(4-guanidinobutyl)-10-methoxycarbonyl-1(1,2),2(1,2)-dinaphthalenacyclopentadecaphane-12-ene hydrochloride]",8 µg/mL
14,"C=CCOc1ccc2ccccc2c1-c1c(OCCCC(=O)N[C@H](CCCCNC(=N)N)C(=O)N[C@@H](CC=C)C(=O)OC)ccc2ccccc12.Cl [Example 111, methyl (aS/R,2S,5R)-2-allyl-10-(2′-allyloxy-1,1′-binaphth-2-oxy)-3,6-diaza-5-(4-guanidinobutyl)-4,7-dioxodecanoate hydrochloride]",8 µg/mL
15,"COC(=O)C1CCC=COc2ccc3ccccc3c2-c2c(ccc3ccccc23)OCCCC(=O)NC(CCCCNC(=N)N)C(=O)N1.Cl [Example 113, (aR/S,9R,12S)-8,11-diaza-9-(4-guanidinobutyl)-12-methoxycarbonyl-1(1,2),2(1,2)-dinaphthalena-3,17-dioxa-7,10-dioxoheptadecaphane-15-ene hydrochloride]",8 µg/mL
16,"(aR/S,7R,10S)-4-acetamido-6,9-diaza-10-benzyloxycarbonyl-7-(4-{[(tert-butoxy)carbonyl]amino}butyl)-1(1,3),2(1,3)-di(2-methoxynaphthalena)-5,8-dioxocyclotetradecaphane-12-ene [Example 15B]",16 µg/mL
17,"methyl (aR/S,2S,5R)-2-allyl-5-[2-({[(2′-allyloxy-1,1′-binaphthoxymethyl]carbonyl}amino)-3-aza-9-guanidino-4-oxononanoate hydrochloride [Example 101]",8 µg/mL

# Same assay, conditions: 37° C. for 18 hours, highest dilution of compound that prevented bacterial growth, hydrochloride
row,Molecule,MIC
1,"COC(=O)C1CC=CCc2cc3ccccc3c(c2OC)-c2c(OC)c(cc3ccccc23)CC(NC(C)=O)C(=O)NC(CCCNC(=N)N)C(=O)N1.Cl (single isomer, unassigned) [21A (another isomer)]",64 µg/mL
2,"COC(=O)C1CC=CCc2cc3ccccc3c(c2OC)-c2c(OC)c(cc3ccccc23)CC(NC(C)=O)C(=O)NC(CCCNC(=N)N)C(=O)N1.Cl (single isomer, unassigned) [21A (one isomer)]",16 µg/mL

# Same assay, conditions: Staphylococcus aureus, ATCC6538P, 37° C. for 18 hours, highest dilution of compound that prevented bacterial growth, read-out: MIC
row,Molecule,MIC
1,C=CCOc1ccc2ccccc2c1-c1c(OCC(=O)N[C@H](CCCCN)C(=O)N[C@@H](CC=C)C(=O)OC)ccc2ccccc12.Cl [Example 97],4 µg/mL
2,"C=CCOc1ccc2ccccc2c1-c1c(OCCCC(=O)N[C@H](CCCCN)C(=O)N[C@@H](CC=C)C(=O)OC)ccc2ccccc12.Cl [Example 107, methyl (aS/R,2S,5R)-2-allyl-10-(2′-allyloxy-1,1′-binaphth-2-oxy)-5-(4-aminobutyl)-3,6-diaza-4,7-dioxodecanoate hydrochloride]",16 µg/mL
3,COC(=O)[C@@H]1C/C=C/COc2ccc3ccccc3c2-c2c(ccc3ccccc23)OCCCC(=O)N[C@H](CCCCN)C(=O)N1.Cl [Example 109],64 µg/mL

# System: not given
# Assay: not given
# Conditions: not given
row,Molecule,melting point
1,C=CC[C@H](NC(=O)[C@H](CCCCN)NC(=O)Cc1cn(CC=C)c2ccccc12)C(=O)OC,103 to 106 °C

# System: D-Ala-D-lactate terminus of the peptidoglycan
# Assay: not given
# Conditions: D-Ala-D-lactate terminus versus D-Ala-D-Ala terminus; cited from earlier work
row,Molecule,decrease in affinity
1,CN[C@H](CC(C)C)C(=O)N[C@H]1C(=O)N[C@@H](CC(N)=O)C(=O)N[C@H]2C(=O)N[C@H]3C(=O)N[C@H](C(=O)N[C@H](C(=O)O)c4cc(O)cc(O)c4-c4cc3ccc4O)[C@H](O)c3ccc(c(Cl)c3)Oc3cc2cc(c3O[C@@H]2O[C@H](CO)[C@@H](O)[C@H](O)[C@H]2O[C@H]2C[C@](C)(N)[C@H](O)[C@H](C)O2)Oc2ccc(cc2Cl)[C@H]1O [Vancomycin],ca. 1000 fold

# System: not given
# Assay: not given
# Conditions: cited from earlier work
row,Molecule,toxicity in mice
1,Cl.Cl.NCC(O)CC1NC(=O)C(N)Cc2cc(ccc2O)-c2ccc(O)c(c2)C(O)C(C(=O)O)NC1=O (stereo not shown) [Biphenomycin A],low toxicity
